Experimental data published in PubChem BioAssay AID248 (DTP/NCI, 2004).
Toxic doses and inconclusive results are not listed. Numbered stars: 1 amine (or outer) side, 2 acyl side, 3 side chain; on linkers, the order of the positions; unused ones are H or OH. Bridge positions count the residues as written; N and C are the ends. Square brackets hold non-standard residues; d marks the D form. Peptide text beside a SMILES is read from it. I, II: the chains in the order shown. Actinocin(1to9) = Cc1c2oc3c(C)ccc(C(=O)[*:2])c3nc-2c(C(=O)[*:1])c(N)c1=O; NMeV = CN[CH](C(=O)O)C(C)C; Sar = CNCC(=O)O

Test system: L1210 leukemia ip in BDF1 mice, survival T/C
Experiment: NCI In Vivo Anticancer Drug Screen. Data for tumor model L1210 Leukemia (intraperitoneal) in B6D2F1 (BDF1) mice
Details: higher = longer survival
How it was run: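 Survival endpoint. Drug-treated group vs vehicle group, expressed as T divided by C. Tumor passaged by transplantation.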

[1] = endpoint: mean survival time, dose: 75.0 mg/kg/injection, schedule: Q01DX009 (ip), vehicle: Klucel (hydroxypropylcellulose) (HPC)
[2] = endpoint: mean survival time, dose: 50.0 mg/kg/injection, schedule: Q01DX009 (ip), vehicle: saline with Tween-80
[3] = endpoint: mean survival time, dose: 100.0 mg/kg/injection, schedule: Q01DX009 (ip), vehicle: saline with Tween-80
[4] = endpoint: mean survival time, dose: 100.0 mg/kg/injection, schedule: Q04DX003 (ip), vehicle: saline with Tween-80
[5] = endpoint: mean survival time, dose: 200.0 mg/kg/injection, schedule: Q04DX003 (ip), vehicle: saline with Tween-80
[6] = endpoint: mean survival time, dose: 400.0 mg/kg/injection, schedule: Q04DX003 (ip), vehicle: saline with Tween-80
[7] = endpoint: mean survival time, dose: 200.0 mg/kg/injection, schedule: Q01DX009 (ip), vehicle: saline with Tween-80
[8] = endpoint: mean survival time, dose: 100.0 mg/kg/injection, schedule: Q04DX002 (ip), vehicle: saline with Tween-80

For `N#CCCOC(=O)CCC(=O)OCCC#N`, the T/C (endpoint: mean survival time, dose: 100.0 mg/kg/injection, schedule: Q01DX001 (ip), vehicle: other) was 104 % of control, the T/C (endpoint: mean survival time, dose: 200.0 mg/kg/injection, schedule: Q01DX001 (ip), vehicle: other) was 100 % of control and the T/C (endpoint: mean survival time, dose: 400.0 mg/kg/injection, schedule: Q01DX001 (ip), vehicle: other) was 102 % of control.
`CC(=O)CC(=O)NCCNC(=O)CC(C)=O` was tested, and the T/C (endpoint: mean survival time, dose: 100.0 mg/kg/injection, schedule: Q04DX003 (ip), vehicle: saline) was 101 % of control, the T/C (endpoint: mean survival time, dose: 200.0 mg/kg/injection, schedule: Q04DX003 (ip), vehicle: saline) was 100 % of control and the T/C (endpoint: mean survival time, dose: 400.0 mg/kg/injection, schedule: Q04DX003 (ip), vehicle: saline) was 100 % of control.
For `CCCP(=S)(CCC)Oc1ccc([N+](=O)[O-])cc1`, the T/C (endpoint: mean survival time, dose: 75.0 mg/kg/injection, schedule: Q01DX001 (ip), vehicle: saline) was 95 % of control and the T/C (endpoint: mean survival time, dose: 150.0 mg/kg/injection, schedule: Q01DX001 (ip), vehicle: saline) was 98 % of control.
`O=S1(=O)CCNc2ccccc2O1` was tested, and the T/C (endpoint: mean survival time, dose: 50.0 mg/kg/injection, schedule: Q01DX001 (ip), vehicle: Klucel (hydroxypropylcellulose) (HPC)) was 101 % of control, the T/C (endpoint: mean survival time, dose: 100.0 mg/kg/injection, schedule: Q01DX001 (ip), vehicle: Klucel (hydroxypropylcellulose) (HPC)) was 93 % of control and the T/C (endpoint: mean survival time, dose: 200.0 mg/kg/injection, schedule: Q01DX001 (ip), vehicle: Klucel (hydroxypropylcellulose) (HPC)) was 97 % of control. For the same molecule, the T/C (endpoint: mean survival time, dose: 400.0 mg/kg/injection, schedule: Q01DX001 (ip), vehicle: Klucel (hydroxypropylcellulose) (HPC)) was 95 % of control.
`O=C(O)CSC(SCC(=O)O)c1ccc(Cl)cc1Cl` was tested, and the T/C (endpoint: mean survival time, dose: 100.0 mg/kg/injection, schedule: Q04DX002 (ip), vehicle: saline) was 94 % of control, the T/C (endpoint: mean survival time, dose: 200.0 mg/kg/injection, schedule: Q04DX002 (ip), vehicle: saline) was 98 % of control and the T/C (endpoint: mean survival time, dose: 400.0 mg/kg/injection, schedule: Q04DX002 (ip), vehicle: saline) was 119 % of control.
For `O=C1C=C(c2ccccc2)OC(c2ccccc2)C1` (stereo unspecified), the T/C [1] was 97 % of control, the T/C (endpoint: mean survival time, dose: 150.0 mg/kg/injection, schedule: Q01DX009 (ip), vehicle: Klucel (hydroxypropylcellulose) (HPC)) was 99 % of control and the T/C (endpoint: mean survival time, dose: 300.0 mg/kg/injection, schedule: Q01DX009 (ip), vehicle: Klucel (hydroxypropylcellulose) (HPC)) was 99 % of control.
`Cc1ccc(C(C)C)cc1NC(=O)c1cccc([N+](=O)[O-])c1` was tested, and the T/C (endpoint: mean survival time, dose: 100.0 mg/kg/injection, schedule: Q01DX009 (ip), vehicle: other) was 98 % of control, the T/C (endpoint: mean survival time, dose: 200.0 mg/kg/injection, schedule: Q01DX009 (ip), vehicle: other) was 88 % of control and the T/C (endpoint: mean survival time, dose: 400.0 mg/kg/injection, schedule: Q01DX009 (ip), vehicle: other) was 98 % of control.
For `O=C(CNC(=O)Nc1ccc(F)cc1)NNC(=O)Nc1ccc(Cl)c([N+](=O)[O-])c1`, the T/C (endpoint: mean survival time, dose: 25.0 mg/kg/injection, schedule: Q01DX009 (ip), vehicle: saline with Tween-80) was 94 % of control, the T/C [2] was 93 % of control and the T/C [3] was 102 % of control.
In the case of `Oc1c(Br)cc(Br)cc1C=Nc1ccc(Cl)cc1.Oc1c(Br)cc(Br)cc1C=Nc1ccc(Cl)cc1.[Co]`, the T/C [4] is reported as 98 % of control, the T/C [5] is reported as 103 % of control and the T/C [6] is reported as 98 % of control.
`CCCCNc1c(C(=O)OCC)cnc2c1cnn2CC` was tested, and the T/C (endpoint: mean survival time, dose: 12.0 mg/kg/injection, schedule: Q01DX009 (ip), vehicle: Klucel (hydroxypropylcellulose) (HPC)) was 100 % of control, the T/C (endpoint: mean survival time, dose: 25.0 mg/kg/injection, schedule: Q01DX009 (ip), vehicle: Klucel (hydroxypropylcellulose) (HPC)) was 96 % of control and the T/C (endpoint: mean survival time, dose: 50.0 mg/kg/injection, schedule: Q01DX009 (ip), vehicle: Klucel (hydroxypropylcellulose) (HPC)) was 106 % of control. The T/C [1] was 96 % of control.
`Fc1cc(F)c(F)c(Oc2c(F)c(F)c(-c3c(F)c(F)c(F)c(F)c3F)c(F)c2F)c1F` was tested, and the T/C [3] was 104 % of control, the T/C [7] was 90 % of control and the T/C (endpoint: mean survival time, dose: 400.0 mg/kg/injection, schedule: Q01DX009 (ip), vehicle: saline with Tween-80) was 101 % of control.
For `CCC(C)C1NC(=O)C(NC(=O)c2c3nc4c(C(=O)NC5C(=O)NC(C(C)C)C(=O)N6CCCC6C(=O)N(C)CC(=O)N(C)C(C(C)C)C(=O)OC5C)ccc(C)c4oc-3c(C)c(=O)c2N)C(C)OC(=O)C(C(C)C)N(C)C(=O)CN(C)C(=O)C2CCCN2C1=O` (stereo unspecified) (I: TIP[Sar][NMeV] / II: TVP[Sar][NMeV]; ester I:1-I:C, II:1-II:C; linker I:N-II:N via Actinocin(1to9); configuration not given here), the T/C (endpoint: mean survival time, dose: 0.2 mg/kg/injection, schedule: Q01DX009 (ip), vehicle: saline) was 92 % of control, the T/C (endpoint: mean survival time, dose: 3.1 micrograms/kg/injection, schedule: Q01DX001 (ip), vehicle: saline) was 97 % of control and the T/C (endpoint: mean survival time, dose: 5.5 micrograms/kg/injection, schedule: Q01DX009 (ip), vehicle: acetone) was 112 % of control. The T/C (endpoint: mean survival time, dose: 6.3 micrograms/kg/injection, schedule: Q01DX001 (ip), vehicle: saline) was 98 % of control, the T/C (endpoint: mean survival time, dose: 8.2 micrograms/kg/injection, schedule: Q01DX009 (ip), vehicle: acetone) was 123 % of control and the T/C (endpoint: mean survival time, dose: 12.5 micrograms/kg/injection, schedule: Q01DX001 (ip), vehicle: saline) was 100 % of control. The T/C (endpoint: mean survival time, dose: 25.0 micrograms/kg/injection, schedule: Q01DX001 (ip), vehicle: saline) was 107 % of control, the T/C (endpoint: mean survival time, dose: 25.0 micrograms/kg/injection, schedule: Q01DX009 (ip), vehicle: saline) was 159 % of control and the T/C (endpoint: mean survival time, dose: 50.0 micrograms/kg/injection, schedule: Q01DX001 (ip), vehicle: saline) was 114 % of control. The T/C (endpoint: mean survival time, dose: 100.0 micrograms/kg/injection, schedule: Q01DX001 (ip), vehicle: saline) was 111 % of control, the T/C (endpoint: mean survival time, dose: 200.0 micrograms/kg/injection, schedule: Q01DX001 (ip), vehicle: saline) was 117 % of control and the T/C (endpoint: mean survival time, dose: 400.0 micrograms/kg/injection, schedule: Q01DX001 (ip), vehicle: saline) was 116 % of control. The T/C (endpoint: median survival time, dose: 12.5 micrograms/kg/injection, schedule: Q01DX009 (ip), vehicle: water) was 121 % of control, the T/C (endpoint: median survival time, dose: 25.0 micrograms/kg/injection, schedule: Q01DX009 (ip), vehicle: water) was 115 % of control and the T/C (endpoint: median survival time, dose: 100.0 micrograms/kg/injection, schedule: Q01DX009 (ip), vehicle: water) was 157 % of control. For the same molecule, the T/C (endpoint: median survival time, dose: 200.0 micrograms/kg/injection, schedule: Q01DX001 (ip), vehicle: water) was 115 % of control, the T/C (endpoint: median survival time, dose: 400.0 micrograms/kg/injection, schedule: Q01DX001 (ip), vehicle: water) was 123 % of control and the T/C (endpoint: median survival time, dose: 600.0 micrograms/kg/injection, schedule: Q04DX003 (ip), vehicle: water) was 150 % of control.
In the case of `c1cc[c]([Sn]([c]2ccccc2)([c]2ccccc2)[n]2ccnc2)cc1`, the T/C (endpoint: mean survival time, dose: 5.0 mg/kg/injection, schedule: Q01DX001 (ip), vehicle: other) is reported as 95 % of control and the T/C (endpoint: mean survival time, dose: 10.0 mg/kg/injection, schedule: Q01DX001 (ip), vehicle: other) is reported as 108 % of control.
For `CCC/C(=C\C(=O)O)CC`, the T/C (endpoint: mean survival time, dose: 100.0 mg/kg/injection, schedule: Q01DX009 (ip), vehicle: Klucel (hydroxypropylcellulose) (HPC)) was 94 % of control, the T/C (endpoint: mean survival time, dose: 100.0 mg/kg/injection, schedule: Q04DX003 (ip), vehicle: Klucel (hydroxypropylcellulose) (HPC)) was 93 % of control and the T/C (endpoint: mean survival time, dose: 200.0 mg/kg/injection, schedule: Q01DX009 (ip), vehicle: Klucel (hydroxypropylcellulose) (HPC)) was 96 % of control. For the same molecule, the T/C (endpoint: mean survival time, dose: 200.0 mg/kg/injection, schedule: Q04DX003 (ip), vehicle: Klucel (hydroxypropylcellulose) (HPC)) was 90 % of control, the T/C (endpoint: mean survival time, dose: 400.0 mg/kg/injection, schedule: Q01DX009 (ip), vehicle: Klucel (hydroxypropylcellulose) (HPC)) was 96 % of control and the T/C (endpoint: mean survival time, dose: 400.0 mg/kg/injection, schedule: Q04DX003 (ip), vehicle: Klucel (hydroxypropylcellulose) (HPC)) was 98 % of control.
In the case of `Cc1cc(F)ccc1[As](=O)(O)O`, the T/C (endpoint: mean survival time, dose: 25.0 mg/kg/injection, schedule: Q04DX003 (ip), vehicle: saline with Tween-80) is reported as 101 % of control.
For `CC(Cl)[N+](=O)[O-]` (stereo unspecified), the T/C [8] was 94 % of control, the T/C (endpoint: mean survival time, dose: 200.0 mg/kg/injection, schedule: Q04DX002 (ip), vehicle: saline with Tween-80) was 94 % of control and the T/C (endpoint: mean survival time, dose: 400.0 mg/kg/injection, schedule: Q04DX002 (ip), vehicle: saline with Tween-80) was 98 % of control.
`Cc1cccc(S(=O)(=O)F)c1` was tested, and the T/C [2] was 91 % of control, the T/C [3] was 100 % of control and the T/C (endpoint: mean survival time, dose: 100.0 mg/kg/injection, schedule: Q04DX003 (ip), vehicle: acetone) was 101 % of control. For the same molecule, the T/C [7] was 88 % of control and the T/C (endpoint: mean survival time, dose: 200.0 mg/kg/injection, schedule: Q04DX003 (ip), vehicle: acetone) was 97 % of control.
In the case of `Cc1cc(C)c(NC2=NCCS2)cc1C`, the T/C [8] is reported as 100 % of control.
For `O=[N+]([O-])c1cc(C(F)(F)F)ccc1/C=C/c1ccccc1Br`, the T/C [4] was 105 % of control, the T/C [5] was 97 % of control and the T/C [6] was 101 % of control.
In the case of `O/N=C(/C(=N/O)c1ccccc1)c1ccccc1.O/N=C(/C(=N/O)c1ccccc1)c1ccccc1.[Pd]`, the T/C (endpoint: mean survival time, dose: 50.0 mg/kg/injection, schedule: Q04DX002 (ip), vehicle: Klucel (hydroxypropylcellulose) (HPC)) is reported as 106 % of control, the T/C (endpoint: mean survival time, dose: 100.0 mg/kg/injection, schedule: Q04DX002 (ip), vehicle: Klucel (hydroxypropylcellulose) (HPC)) is reported as 95 % of control and the T/C (endpoint: mean survival time, dose: 200.0 mg/kg/injection, schedule: Q04DX002 (ip), vehicle: Klucel (hydroxypropylcellulose) (HPC)) is reported as 103 % of control.
